According to ChEMBL document CHEMBL1141814, “Chiral dihydroxylation of acronycine: absolute configuration of natural cis-1,2-dihydroxy-1,2-dihydroacronycine and cytotoxicity of (1R,2R)- and (1S,2S)-1,2-diacetoxy-1,2-dihydroacronycine” (J Nat Prod, 1999):

Test system: L1210
Assay: Cytotoxicity against mouse L1210 cells after 48 hrs by […] assay
Format: functional, cell-based
Details: L1210, 48 h

Compound	IC50
COc1cc2c(c3c1c(=O)c1ccccc1n3C)[C@H](OC(C)=O)[C@H](OC(C)=O)C(C)(C)O2	3.7 µM
COc1cc2c(c3c1c(=O)c1ccccc1n3C)[C@@H](OC(C)=O)[C@@H](OC(C)=O)C(C)(C)O2	3.1 µM
COc1cc2c(c3c1c(=O)c1ccccc1n3C)C=CC(C)(C)O2 [ACRONINE]	10.4 µM
